According to PMC2932887 (Journal of medicinal chemistry, 2010):
Like-named read-outs stand apart in the source and are kept apart here.

How the values were obtained:
recombinant rat NAAA [1] = target: T1, recombinant rat NAAA (Rattus norvegicus, UniProt Q5KTC7); test: NAAA assay: inhibition of heptadecenoylethanolamide hydrolysis; type: biochemical; conditions: for NAAA inhibitory activity (in words): recombinant rat NAAA
T1 sequence (Q5KTC7 131-362 limits assumed): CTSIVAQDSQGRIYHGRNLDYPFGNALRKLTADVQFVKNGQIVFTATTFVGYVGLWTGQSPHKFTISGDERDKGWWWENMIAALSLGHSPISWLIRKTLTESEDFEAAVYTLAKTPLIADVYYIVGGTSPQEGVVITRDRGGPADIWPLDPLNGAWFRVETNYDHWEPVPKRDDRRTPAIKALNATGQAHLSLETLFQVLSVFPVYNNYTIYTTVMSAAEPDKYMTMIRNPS
T1 sequence (Q5KTC7 34-130 partner limits assumed): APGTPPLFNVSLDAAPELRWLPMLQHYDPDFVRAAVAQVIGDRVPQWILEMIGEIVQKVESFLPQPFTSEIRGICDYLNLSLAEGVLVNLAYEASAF

[2] = target: T2, Recombinant NAAA expressed in HEK-293 Cells (Rattus norvegicus, UniProt Q5KTC7); test: Michaelis-Menten analysis of NAAA in presence of inhibitor; type: biochemical
T2 sequence (Q5KTC7 131-362 limits assumed): T1 sequence (Q5KTC7 131-362 limits assumed)
T2 sequence (Q5KTC7 34-130 partner limits assumed): T1 sequence (Q5KTC7 34-130 partner limits assumed)

monoacylglycerol lipase = conditions: cited from earlier work
recombinant rat NAAA [3] = target: T1, recombinant rat NAAA; conditions: intracellular NAAA activity; cited from earlier work
FAAH = conditions: cited from earlier work
[4] = system: diacylglycerol lipase type-α; conditions: cited from earlier work

| NAAA inhibitory activity (in words) (recombinant rat NAAA [1]) | SMILES | also measured |
| --- | --- | --- |
| entirely devoid of inhibitory activity | O=C(CCc1ccccc1)N[C@H]1CCOC1=O [11a, (S)-N-(2-Oxotetrahydrofuran-3-yl)-3-phenylpropionamide] |  |
| inactivity | O=C(N[C@H]1CCOC1=O)c1ccc2ccccc2c1 [11j, (S)-N-(2-Oxotetrahydrofuran-3-yl)-2-naphthamide] |  |
| complete loss of activity | C[C@H]1OC(=O)[C@H]1NC(=O)CCc1ccccc1 [20a, (2R,3S)-N-(2-Methyl-4-oxo-3-oxetanyl)-3-phenylpropionamide] |  |

More lines, now with the values behind:

| SMILES | NAAA inhibitory activity (in words) (recombinant rat NAAA [1]) | also measured |
| --- | --- | --- |
| O=C(N[C@H]1COC1=O)c1ccc(-c2ccccc2)cc1 [7h, (S)-N-(2-Oxo-3-oxetanyl)biphenyl-4-carboxamide] |  | mechanism of NAAA inhibition (recombinant rat NAAA [1]; preincubation time-course, Michaelis-Menten analysis, overnight dialysis): rapid, noncompetitive and reversible; Vmax ([2]; 100 nM inhibitor): 10.8 ± 2.5 nmol/min/mg; Vmax ([2]; 200 nM inhibitor): 6.2 ± 0.2 nmol/min/mg |
| O=C(CCc1ccccc1)NC1CCC1=O (centres unmarked) [compound 15, N-(2-Oxocyclobutyl)-3-phenylpropionamide] | entirely devoid of inhibitory activity |  |
| O=C1OCC1CCCCc1ccccc1 (racemic) [compound 23, rac-3-(4-Phenylbutyl)oxetan-2-one] | low potency |  |
| O=C(CCc1ccccc1)N[C@@H](CO)C(=O)O [compound 10, (S)-3-Hydroxy-2-(3-Phenylpropionylamino)propionic Acid] | entirely devoid of inhibitory activity |  |
| O=C(CCc1ccccc1)NC1CCC1 [compound 12, N-Cyclobutyl-3-phenylpropionamide] | entirely devoid of inhibitory activity |  |
| O=C(CCc1ccccc1)N[C@H]1COC1=O [7a, (S)-N-(2-Oxo-3-oxetanyl)-3-phenylpropionamide] |  | inhibition of monoacylglycerol lipase (monoacylglycerol lipase): no inhibition; mechanism of NAAA inhibition (recombinant rat NAAA [3]): non-competitive; inhibition of FAAH (FAAH): no inhibition; inhibition of diacylglycerol lipase type-α [4]: no inhibition |
